In patent publication US20110293558A1, “MATERIAL PROPERTIES OF T CELLS AND RELATED METHODS AND COMPOSITIONS” (Massachusetts Institute of Technology, priority 2010, published 2011):
Entries after “also recorded” stand apart in the source; their conditions may differ.

Columns and labels:
parasitemia = settings: patients treated with artemisinin and its derivatives vs other antimalarial drugs; cited from earlier work
RBCs = experiment: Deformability cytometer: RBC velocity/passage after glutaraldehyde treatment; format: cell-based, human
Description: The device design includes periodically spaced, triangle-shaped pillars and the gaps between these pillars result in well-controlled constrictions for RBCs to pass. The height of the device was set to 4.2 μm. RBCs were forced to assume a flat orientation before entering each constriction. This height, in addition to filters at the reservoirs, prevented white blood cells from entering the device, and permitted diluted whole blood to be used directly.
A mold of the device was made on a silicon wafer using photolithography and reactive-ion etching techniques. A 5× reduction step-and-repeat projection stepper (Nikon NSR2005i9, Nikon Precision) was used for patterning. The spacing between pillars was 3 μm, and the depth of the device was 4.2 μm. The device was made using standard PDMS casting protocols and bonded to a glass slide.
PBS was mixed with 0.2% w/v Pluronic F-108 (BASF, Mount Olive, N.J.) and 1% w/v Bovine Serum Albumin (BSA) (Sigma-Aldrich, St. Louis, Mo.) as a stock solution to prevent RBC adhesion to the device walls. For the fluorescent bead experiments, 200 nm FluoSpheres europium luminescent microspheres (Molecular Probes, Eugene, Oreg.) diluted to a final concentration of 1.25×10^−5 percent solids were used.
In experiments involving blood, 1 μl of whole blood (˜50% hematocrit) was diluted in 100 μl of the PBS-pluronic-BSA solution for all of the experiments. […]

[1] = tested on: RBCs re-suspended in saline / Ringer solution; settings: cited from earlier work
[2] = tested on: P. falciparum-infected RBCs (iRBCs); experiment: Microfluidic deformability cytometer: cell mobility after artesunate treatment; format: cell-based, human; settings: for iRBC deformability (cell mobility) after artesunate drug treatment: 0.01, 0.05 or 0.1 μg/ml artesunate, 2, 4 and 6 hours after treatment, synchronized rings ~15% parasitemia; for separation resolution between iRBCs and uRBCs: after artesunate drug treatment vs untreated
Description: (§1) The device used in this example comprises a series of equally spaced triangular pillar arrays with pore sizes ranging from 2.5 to 4 um (FIG. 55A illustrates the case of 3 um pore size). Compared to the diameter of an average RBC (˜7.5 um), the smaller pore sizes are designed to impose similar mechanical constraints on the cells as if they are passing through blood capillaries and splenic meshwork. Driven by constant pressure gradient in the sub-Pascal-per-micrometer range, RBCs are able to deform substantially at each constriction and traverse along the channel. The dynamic deformability of RBCs is then characterized by their mobility: the ability to deform repeatedly in order to pass through multiple constrictions in series.
(§2) FIG. 55A depicts an experimental schematic of the microfluidic system. A heating chamber (Olympus) was mounted to the inverted microscope stage. Four heaters for the inner water bath, microscope stage, chamber top, and lens were designed to accurately control the ambient temperature inside the chamber. The PDMS-glass bonded device consists of the inlet and outlet reservoirs and main channels with triangular pillar arrays. It was placed inside the heating chamber with only the inlet reservoir connecting to an external syringe via a 20 cm-tubing. The reservoirs were 500×500 μm^2 squares with 20 μm-interspacing cylindrical pillar arrays; these pillar arrays could pre-filter white blood cells from whole blood, allowing only RBCs to pass through the main channels. Each of the parallel channels was 10 pillars wide and 200 pillars long. Along the flow direction, the inter-pillar spacing was 10 μm. This spacing allows deformed cells to recover and ready for subsequent deformations. Perpendicular to the flow direction, the pore size varied from 2.5 to 4 μm for different channels. Cells experience different levels of deformation when passing through these pores.
(§3) FIG. 55B presents microscopic screenshots illustrating both iRBCs and co-cultured uRBCs moving in the microchannel at different temperature conditions. The uninfected cells appear as dark shadows indicated by blue arrows, and the infected cells with thiazole orange (TO) staining appear as bright dots indicated by white arrows. The mobility of individual cells can then be derived by recording the time period for each cell passing through 10 constrictions in series (i.e. equivalent to 200 μm distance travelled). In this example, cell mobility is used to characterize the dynamic deformability of individual RBCs.
(§4) The deformability of both iRBCs and uRBCs were measured at 2, 4 and 6 hours after artesunate drug treatment (FIG. 60). A synchronized culture of rings with ˜15% parasitemia was resuspended at 0.1% hematocrit in malaria culture medium containing 0.01, 0.05 or 0.1 μg/ml of artesunate.
(§5) Layout program CleWin3.0 was used to design the microfluidic device, which consists of a 500×500 μm^2 inlet reservoir, a 500×500 μm^2 outlet reservoir, and parallel capillary channels with triangular pillar arrays (FIG. 55A). Three different pore-size of 2.5, 3.0 and 4.0 μm were designed for the capillary channels to test optimum deformation condition for the experiment. A silicon mold of the device was made using standard silicon processing techniques. The photolithography step was done using a 5× reduction step-and-repeat projection stepper (Nikon NSR2005i9, Nikon Prevision) and reactive-ion etching (RIE) techniques were used to give the mold a final depth of 4.2 μm. Final device was then casted from the silicon mold using polydimethylsiloxane (PDMS) and was sealed by a glass slide using oxygen plasma.
(§6) P. falciparum 3D7A parasites (from Malaria Research and Reference Reagent Source, American Type Culture Collection) were cultured in leukocyte-free human RBCs (Research Blood Components, Brighton Mass.) in RPMI 1640 complete medium as described (Trager and Jensen J. parasitol. 2005). […]

[3] = tested on: co-cultured uninfected RBCs (uRBCs); experiment: as above; format: cell-based, human; settings: 0.01, 0.05 or 0.1 μg/ml artesunate; 2, 4 and 6 hours after treatment
Description: as §1, §2, §3, §4, §5, §6

Compound: C[C@@H]1CC[C@H]2[C@@H](C)C(=O)O[C@@H]3O[C@@]4(C)CC[C@@H]1[C@]32OO4 [artemisinin]
- decline in parasitemia (parasitemia): more rapid decline in parasitemia

Compound: O=CCCCC=O [glutaraldehyde]
- RBC stiffness / velocity with increasing glutaraldehyde concentration (RBCs; 30 minutes in PBS, approx. 0.61 Pa/μm, FIG. 5B): progressively stiffer with decreasing velocity
- RBC passage into the channel (RBCs; glutaraldehyde concentrations greater than 0.003%): most RBCs were held up at the entrance to the channel

Compound: CC=O [acetaldehyde]
- RBC hardening / suspension viscosity ([1]; prolonged exposure of clean RBCs to acetaldehyde, re-suspension in Ringer solution): constant suspension viscosity over the full range of hematocrit and shear rates

Compound: C[C@H]1[C@H](OC(=O)CCC(=O)O)O[C@@H]2O[C@@]3(C)CC[C@H]4[C@H](C)CC[C@@H]1[C@@]24OO3 [artesunate]
- iRBC deformability (cell mobility) after artesunate drug treatment [2]: stiffening effect; also recorded: drop in iRBC deformability is more precipitous than in uRBC
- iRBC deformability (cell mobility) after artesunate drug treatment ([2]; listed as Artesunate): significant decrease in cell mobility
- mobility decrease ([2]; 2 and 4 hours after artesunate treatment, iRBCs and uRBCs both measured): smaller and less pronounced mobility decrease
- dose dependence of mobility changes ([2]; after 4 hour drug treatment, dosage range 0.01 to 0.1 μg/ml): no statistically significant dose dependence
- separation resolution between iRBCs and uRBCs [2]: almost doubled
- separation resolution between iRBCs and uRBCs ([2]; listed as Artesunate): doubled
- uRBC deformability (cell mobility) after artesunate drug treatment [3]: stiffening effect; also recorded: stiffened considerably

Compound: Fibrinogen
- suspension viscosity ([1]; fibrinogen added progressively to washed RBCs in pure saline): increase in viscosity with increasing fibrinogen concentration at low deformation rates
